Measurements as given in article PMC7012964, “Biopharmaceutical Understanding of Excipient Variability on Drug Apparent Solubility Based on Drug Physicochemical Properties. Case Study: Superdisintegrants” (The AAPS Journal, 2020).
Values after ≈ are worked out from the molar mass of the structure shown. Like-named read-outs stand apart in the source and are kept apart here.

Assays:
[1] = set-up: method as in earlier work; settings: ref (20), (22), (24), (25), (27), (30), (31), (34); cited from earlier work
[2] = Relative effect (RE) of superdisintegrant on drug apparent solubility (shake-flask, physical mixtures); assay type: physicochemical
Experimental: (§1) Compendial media (0.1 N HCl pH 1, phosphate buffer pH 6.8) were prepared according to the method described in European Pharmacopoeia ([35]). Fasted State Simulated Gastric Fluid (FaSSGF) and Fasted State Simulated Intestinal Fluid (FaSSIF-V2) were prepared as described by Jantratid et al.([36]).
(§2) Drug solubility studies in the absence and presence of excipient were performed in triplicate using the shake-flask method ([38]). Drug excess amount and 2% w/w or 5% w/w of each excipient were weighed and placed in centrifuge tubes. […] The physical mixtures were vortexed for 3 min. Then 5 mL of each medium was added in the tubes and the samples were placed in a shaking water bath (37°C, 200 strokes per minute (spm)). […] Filter adsorption studies were prior performed in triplicate for each drug. […] Filtered samples were further diluted (if needed) with the corresponding medium and analysed by HPLC (Supplementary Table I). Analytical HPLC procedures for drug quantification in the samples were modifications of already published methods. Drug quantification was made based on calibration curves. Standards were formulated from concentrated stock solution consisting of drug dissolved in MeOH. […] Drug solubility was calculated based on the sample drug concentration measured.

[3] = ref (20), (22), (23), (25), DrugBank, (28), (31), (33); cited from earlier work
[4] = Shake-flask drug solubility in absence of excipient (reference solubility); assay type: physicochemical
Experimental: as §1, §2

[5] = aqueous buffer, thermodynamic from solid, Phosphate buffer pH 6.8 (compendial), 37°C, mean ± SD, read-out: Reference solubility
[6] = fassgf or other biorelevant, thermodynamic from solid, FaSSGF (biorelevant), 37°C, mean ± SD, read-out: Reference solubility
[7] = simulated gastric fluid, thermodynamic from solid, 0.1 N HCl pH 1 (compendial), 37°C, mean ± SD, read-out: Reference solubility
[8] = thermodynamic from solid, FaSSIF-V2 (biorelevant), 37°C, mean ± SD, read-out: Reference solubility

Relative effect (RE) of excipient on drug solubility ([2]; CCS(L), high level, phosphate buffer pH 6.8, 24 h) | solubility at 24 h [4, 5] | solubility at 0.5 h ([4]; compendial media (0.1 N HCl pH 1; phosphate buffer pH 6.8), 37 °C, thermodynamic from solid, compendial media, 0.5 h, read-out: Solubility of pure drug) | solubility at 24 h ([4]; compendial media (0.1 N HCl pH 1; phosphate buffer pH 6.8), compendial media, read-out: Solubility of pure drug) | solubility at 24 h [4, 6] | solubility at 24 h [4, 7] | solubility at 24 h [4, 8] | Relative effect (RE) of excipient on drug solubility ([2]; 5% CCS(H), FaSSIF-V2, 24 h) | Relative effect (RE) of excipient on drug solubility ([2]; CCS(H), low level, FaSSIF-V2, 24 h) | Relative effect (RE) of excipient on drug solubility ([2]; Explotab CLV (SSG), high excipient level, FaSSIF-V2, 24 h) | Relative effect (RE) of excipient on drug solubility ([2]; Glycolys (SSG), both excipient levels, FaSSIF-V2, 24 h) | Relative effect (RE) of excipient on drug solubility ([2]; Glycolys (SSG), high excipient level, 0.1 N HCl pH 1, 24 h) | Relative effect (RE) of excipient on drug solubility ([2]; Glycolys (SSG), low excipient level, 0.1 N HCl pH 1, 24 h) | Relative effect (RE) of excipient on drug solubility ([2]; Glycolys LV (SSG), high excipient level, FaSSIF-V2, 24 h) | Structure (SMILES) | Solubility (based on BCS classification) [1] | Ionization (type) [3]
37% | 227 µg/mL (≈ 961 µM) | 350 µg/mL (≈ 1480 µM) | 250 µg/mL (≈ 1060 µM) | 368 µg/mL (≈ 1560 µM) | 265 µg/mL (≈ 1120 µM) | 280 µg/mL (≈ 1190 µM) | – | – | – | – | – | – | – | NC(=O)N1c2ccccc2C=Cc2ccccc21 [CBZ, Carbamazepine] | Low (27) | Neutral
– | 5 µg/mL (≈ 9.91 µM) | – | – | 8600 µg/mL (≈ 17000 µM) | 13000 µg/mL (≈ 25800 µM) | 13 µg/mL (≈ 25.8 µM) | – | – | – | – | – | – | – | OCCN(CCO)c1nc(N2CCCCC2)c2nc(N(CCO)CCO)nc(N3CCCCC3)c2n1 [DPL, Dipyridamole] | Low (30) | Weak base
– | 5500 µg/mL (≈ 26700 µM) | – | – | 44 µg/mL (≈ 213 µM) | 43 µg/mL (≈ 208 µM) | 1500 µg/mL (≈ 7270 µM) | – | – | – | – | – | – | – | CC(C)Cc1ccc(C(C)C(=O)O)cc1 (centres unmarked) [IBU, Ibuprofen] | – | Weak acid
– | < 0.015 µg/mL | – | – | 1.2 µg/mL (≈ 1.7 µM) | 11 µg/mL (≈ 15.6 µM) | 0.05 µg/mL (≈ 0.0709 µM) | 31% | −40% | 25% | approximately 50% | −25% | −23% | 42% | CCC(C)n1ncn(-c2ccc(N3CCN(c4ccc(OCC5COC(Cn6cncn6)(c6ccc(Cl)cc6Cl)O5)cc4)CC3)cc2)c1=O (centres unmarked) [ITZ, Itraconazole] | Low (34) | Weak base
– | 15000 µg/mL (≈ 99200 µM) | – | – | 17000 µg/mL (≈ 112000 µM) | 16000 µg/mL (≈ 106000 µM) | 17000 µg/mL (≈ 112000 µM) | – | – | – | – | – | – | – | CC(=O)Nc1ccc(O)cc1 [PRC, Paracetamol] | – | Neutral
